Entries after “also recorded” stand apart in the source; their conditions may differ.
Tests used:
[1] = rat, in vivo, cited from earlier work
CYP1A2 = CYP1A2 activity (phenacetin O-deethylation) in liver microsomes of treated mice; type: in vivo, mouse; conditions: for modulation of CYP1A2 activity (paracetamol produced): mice, 25, 12.5, 6.25 mg/kg daily oral for 28 days vs control
Protocol: Mice were divided into four groups (3 male mice each). Mice in the treated groups were fed with plumbagin at a daily oral dose of 25, 12.5, or 6.25 mg/kg body weight (1 mL) for 28 days. The control group received a daily oral dose (1 mL) of 20 % Tween-80 for 28 days. At the end of the experiment period, all animals were sacrificed under ether anesthesia and livers were removed for investigation of the modulatory effect of plumbagin on hepatic CYP1A2 and CYP3A11.
The liver samples were rinsed with ice-cold, 0.9 %NaCl, homogenized in 50 mM sodium phosphate buffer (pH 7.4) containing 0.1 mM EDTA, and centrifuged at 9000 × g for 20 min. The supernatant was ultracentrifuged at 105,000 × g for 60 min, and the resulting microsomal pellets were suspended with ice cold 1.15 % KCl solution and ultracentrifuged at 105,000 × g for 60 min. The pellets were homogenized with 50 mM potassium phosphate (pH 7.4) containing 0.1 mM EDTA and 10 % glycerol. Protein concentrations were determined by Bradford protein assay and the suspended microsomes were aliquoted and stored at −80 °C until use.
Phenacetin O-deethylation and nifedipine oxidation were used as selective markers for CYP1A2 and CYP3A11 activities, respectively. The substrate concentration equivalent to the apparent Km (Michaelis-Menten constant) of each individual CYP450 was used in the experiment. Final concentration of organic solvent in the incubation mixture was less than 1 %. The incubation conditions for determination enzyme activity to both CYP450 isoforms were according to the previously described methods.
The incubation mixture of 500 μL containing the selective substrate (20 μM phenacetin and 40 μm nifedipine for CYP1A2 and CYP3A11, respectively), mice liver microsomes (in 100 mM phosphate buffer pH 7.4) was pre-incubated at 37 °C for 5 min in a shaking water bath. […] Concentrations of paracetamol (metabolite of CYP1A2) and oxidized nifedipine (metabolite of CYP3A11) in the incubation mixtures were determined using HPLC with UV detection. […]

SMILES: CC1=CC(=O)c2c(O)cccc2C1=O [plumbagin, 5-hydroxy-2-methyl-1,4-naphthoquinone]
- oral bioavailability ([1]; po): 39%
- elimination half-life (t1/2), mean [1]: 17 h
- mean residence time (MRT), mean [1]: 22 h
- time to reach maximum blood concentration (tmax) [1]: 2.5 h
- modulation of CYP1A2 activity (paracetamol produced) (CYP1A2): no significant change; also recorded: not found to induce or inhibit
- modulation of CYP1A2 activity (paracetamol produced) (CYP1A2; listed as Plumbagin): did not significantly modulate
- trend of CYP1A2 activity (CYP1A2; particularly at the lowest dose level of 6.25 mg/kg body weight): tended to be reduced

Reference: article PMC5108082, “Pharmacokinetics, toxicity, and cytochrome P450 modulatory activity of plumbagin” (BMC Pharmacology & Toxicology, 2016)
